The test system of experiment [1] is NF-κB. Conditions: proximal p65 enhancer element; cited from earlier work.
In experiment [2] the test system is NF-κB. Nature of the experiment: NF-κB EGFP reporter live-cell imaging in cis-NF-κB-EGFP transgenic astrocytes. To be noted: 10 μM, FIG. 4B. Type of experiment: cell-based, mouse. The text has this: NF-κB reporter assays in cis-NF-κB^EGFP transgenic astrocytes and expression of mutant IκBα. To measure activation of NF-κB in live cell, astrocytes were isolated from a unique transgenic mouse expressing a reporter construct consisting of three HIV NF-κB consensus elements inserted 5′ to a minimal c-fos promoter that drives expression of enhanced green fluorescent protein (EGFP) (Magness et al., 2004) (Provided by Dr. Christian Jobin, University of North Carolina at Chapel Hill). NF-κB activity was determined by live-cell imaging using a Zeiss 20× air PlanApochromat objective using SlideBook v4.2 (Intelligent Imaging Innovations, Inc., Denver, Colo.). […] This approach was consistent between all replicates. At least four microscopic fields were examined per treatment group in each of at least three independent experiments, and reported as percent activated cells 8 hours following treatments. […]
A wide array of inflammatory genes, including Nos2, are driven by the NF-κB signaling cascade. […] Real-time imaging of GFP fluorescence was performed in control transgenic astrocytes exposed to saline and in cells exposed to MPTP and TNF-α/IFN-γ in combination with DIM-C-pPhtBu (10 μM), rosiglitazone (10 μM), or DMSO. […]

In experiment [3] the test system is 3-nitrotyrosine protein nitration in astrocytes. Nature of the experiment: Immunofluorescence of 3-nitrotyrosine adducts (protein nitration) in primary astrocytes treated with MPTP and cytokines. Type of experiment: cell-based, mouse. On the procedure: Immunofluorescence. Primary astrocytes were grown to confluence on 20 mm serum-coated glass coverslips and treated with saline or MPTP (10 μM), TNF-α (10 pg/ml), and IFN-γ (1 ng/ml) with or without DIM-C-pPhtBu (10 μM), rosiglitazone (10 μM), the NOS2 inhibitor AMT (25 nM) or NOS 1 inhibitor 7-NI (10 μM), or a DMSO vehicle control 8 hours prior to analysis. Immunofluorescence to confirm culture purity was conducted on cells grown to confluence on the 20 mm glass coverslips. Blocking and antibody hybridization was conducted in 1% BSA (w/v) in PBS, and all washes were conducted in PBS. Images were acquired using a Zeiss 20× air PlanApochromat objective and 6-8 microscopic fields were examined per treatment group over no less than three independent experiments. Fluorescent secondary antibodies were used to detect GFAP (488 nmcx/519 nmcm) and Iba1 or nitrosylated protein (647 nmcx/668 nmcm), respectively, while mounting medium containing DAPI (360 nmcx/460 nmcm) was used to identify cell nuclei.
The effect of NOS2 induction by MPTP and inflammatory cytokines on global protein nitration following NO/peroxynitrite (ONOO—) formation in astrocytes was examined by immunofluorescence (FIG. 3). Immunofluorescence using antibodies against GFAP (FITC) and 3-nitrotyrosine adducts (Cy5) was employed to measure the extent of protein nitration within astrocytes treated with MPTP and cytokines, with or without inclusion of DIM-C-pPhtBu (10 μM), rosiglitazone (10 μM), the high-affinity NOS2 inhibitor AMT (25 nM), the NOSI inhibitor 7-NI (10 μM) or a DMSO vehicle control. […] Co-treatment of astroytes with DIM-C-pPhtBu prevented MPTP-induced increases in nitration, resulting in similar levels of 3-nitrotyrosine adducts as saline-treated control cells (FIG. 3C). Mean intracellular fluorescence for 3-nitrotyrosine was quantified and compared between each treatment group (FIG. 3D).

For experiment [4], the system named is astrocyte activation, NOS2 and NF-κB/GFP expression in striatum. As to the kind of experiment: Anti-inflammatory efficacy in transgenic NF-κB-GFP reporter mice treated with MPTP. Type of experiment: in vivo, mice (C57B1/6 background). To be noted: 50 mg/Kg oral gavage in corn oil once per day for four days following MPTP; striatum 7 days following MPTP. On the procedure:
Transgenic NF-κB-GFP reporter mice (C57B1/6 background) were exposed to MPTP (2 injections of 15 mg/kg, 12 hours apart) in the presence and absence of DIM-C-pPhtBu and assessed for activation of astrocytes, expression of NOS2, and expression of GFP (representing NF-kB activity). DIM-C-pPhtBu was administered once per day for four days following MPTP treatment by oral gavage in corn oil at 50 mg/Kg and frozen sections through the striatum were prepared 7 days following MPTP. Immunofluorescent images were collected using a 40× Zeiss PlanApochromat objective for GFAP as marker for astrocytes (purple), NOS2 (red), green fluorescent protein (GFP; green), and DAPI (blue; DNA stain). Co-location of red and green channels is depicted in the image as yellow. […] This activated glial phenotype was inhibited by treatment with DIM-C-pPhtBu.

The subject of experiment [5] is 3-nitrotyrosine protein adducts in dopaminergic neurons of the substantia nigra. As to the kind of experiment: Protein nitration in dopaminergic neurons of mice treated with MPTP. Type of experiment: in vivo, C57B1/6 mice. Conditions: 50 mg/Kg oral gavage in corn oil once per day for four days following MPTP; substantia nigra 7 days following MPTP. On the procedure:
C57B1/6 mice were treated with MPTP (2 injections of 15 mg/kg, 12 hours apart) in the presence and absence of DIM-C-pPhOCH3 (DIM5) and assessed for 3-nitrotyrosine protein adducts (a marker of nitrosative stress and excessive NO/peroxynitrite formation). DIM-C-pPhOCH3 was administered once per day for four days following MPTP treatment by oral gavage in corn oil at 50 mg/Kg and frozen sections through the substantia nigra were prepared 7 days following MPTP. Immunofluorescence images were collected using a 40× Zeiss PlanApochromat objective for tyrosine hydroxylase (green), 3-nitrotyrosine (red), and DAPI (blue; DNA/nuclear stain). […] DIM-C-pPhOCH3 prevented protein nitration in dopaminergic neurons in mice treated with MPTP.

The structures appear in SMILES notation.

For `CN(CCOc1ccc(CC2SC(=O)NC2=O)cc1)c1ccccn1` (stereo not shown) [rosiglitazone, 5-((4-(2-(methyl-2-pyridinylamino)ethoxy)phenyl)methyl)-2,4-thiazolidinedione, reference compound], the “Effect on NF-κB in RAW macrophages” value in the experiment with NF-κB [1] was “antagonize NF-κB by stabilizing NCoR2”. Also, the “Suppression of MPTP+TNF-α/IFN-γ induced increase in total cellular GFP fluorescence (NF-κB activity)” value in the experiment on NF-κB [2] is on record as “completely suppressed”.

As for `CC(C)(C)c1ccc(C(c2c[nH]c3ccccc23)c2c[nH]c3ccccc23)cc1` [DIM-C-pPhtBu, 1,1-bis(3′-indolyl)-1-(p-t-butylphenyl)methane], the “Suppression of MPTP+TNF-α/IFN-γ induced increase in total cellular GFP fluorescence (NF-κB activity)” value in the experiment on NF-κB [2] is reported as “completely suppressed”. Moreover, the “MPTP-induced increase in 3-nitrotyrosine formation” value in experiment [3] (10 μM co-treatment, astrocytes, FIG. 3D) is recorded as “prevented”. The “MPTP-induced activated glial phenotype (hypertrophic astrocytes expressing NOS2 and NF-κB/GFP)” value in experiment [4] is given as “inhibited”.

With `COc1ccc(C(c2c[nH]c3ccccc23)c2c[nH]c3ccccc23)cc1` [DIM-C-pPhOCH3, 1,1-bis(3′-indolyl)-1-(p-methoxyphenyl)methane], in experiment [5], the “Protein nitration (3-nitrotyrosine) in dopaminergic neurons” value is listed as “completely suppressed”. Besides, in experiment [3] (FIG. 7(D), concentration not given), the “Protein nitration in primary astrocytes induced by MPTP and TNF-α/IFN-γ” value is “prevents protein nitration”.

These data come from patent US8580843B2, “Use of diindolylmethane (DIM) compounds and derivatives as neuroprotective agents” (Colorado State University Research Foundation, priority 2008, dated 2013).
